The results in this text go back to ChEMBL document CHEMBL1201862, “PubChem BioAssay data set” (2004).

Experiment in all cases: NCI-60 cell line screen, 48 h
Experiment [1] relates to LXFL 529.
Experiment [2] deals with HOP-18.
Experiment [3] concerns KM-20L2.
For experiment [4], the system named is DMS-114.
In experiment [5] the test system is SNB-78.
Experiment [6] relates to XF498.
Experiment [7] concerns DMS-273.
Experiment [8] has as its system DLD-1.
The subject of experiment [9] is RXF 631.

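Method: 48-hour compound exposure of cells in 96-well plates, five concentrations, linear interpolation of endpoints. GI50: concentration for 50% inhibition of growth.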 Calls of active or inactive are those of the source. No stated cut-off is given here; in the data, active = GI50 up to about 1.1 µM and inactive = higher.

Take `Cn1c(N)c(-c2c3ccccc3nc3ccccc23)c(=O)n(C)c1=O`: the GI50 in experiment [1], in experiment [2], in [3] and in experiment [4] was > 100 µM (inactive) throughout.
As for `O=C(c1ccc2c3c(ccc(C(=O)C(F)(F)F)c13)CC2)C(F)(F)F`, the GI50 in [5] is > 100 µM (inactive); in experiment [1] it was 40.3 µM (inactive); in experiment [2], 53.2 µM (inactive); in experiment [6], 9.31 µM (inactive); in experiment [7], 27.9 µM (inactive); in [3] it was 35.2 µM (inactive). The GI50 is 88.1 µM (inactive) in experiment [8] and 41.4 µM (inactive) in [4].
As for `CN(C)CCNC(=O)c1cccc2c1nc(-c1ccccc1)c1ccccc12`, the GI50 in [5] is 10.4 µM (inactive); in experiment [2], 14.7 µM (inactive); in [7] it was 2.91 µM (inactive); in experiment [8] it was 2.33 µM (inactive); in experiment [9] it was 1.05 µM (active).
As for `O=C(Nc1cccc(NC(=O)c2cc(=O)c3ccccc3o2)n1)c1cc(=O)c2ccccc2o1`, the GI50 is > 100 µM (inactive) in [5]; 7.69 µM (inactive) in experiment [1]; 9.64 µM (inactive) in experiment [7]; 68.4 µM (inactive) in [3]; 75.9 µM (inactive) in experiment [8]; 51.5 µM (inactive) in experiment [9]. Further, the GI50 in experiment [4] was 19.2 µM (inactive).
`Oc1ccc(O)c(-n2cccn2)c1`: the GI50 in experiment [5] was 58.5 µM (inactive); in [1], 20.9 µM (inactive); in experiment [6], > 100 µM (inactive); in experiment [7], 75.5 µM (inactive); in experiment [3] it was > 100 µM (inactive); in experiment [8] it was 63 µM (inactive). Besides, the GI50 is 50 µM (inactive) in experiment [9] and 29.6 µM (inactive) in experiment [4].
Consider `O=C(CCc1nnc2s/c(=C\c3ccc([N+](=O)[O-])cc3)c(=O)n12)Nc1ccc(Cl)c(Cl)c1`, for which the GI50 in [5] is 25.4 µM (inactive); in [1], 13.4 µM (inactive); in experiment [6], 27.6 µM (inactive); in [7], 24.5 µM (inactive); in [3] it was 47.9 µM (inactive); in experiment [8] it was 19.3 µM (inactive). In addition, the GI50 in experiment [9] was 49.9 µM (inactive); in [4], 17.3 µM (inactive).
Consider `COc1ccc(CNc2nc3ccccc3nc2-c2cccs2)cc1OC`, for which the GI50 in experiment [5] was 82.8 µM (inactive); in [1], 15.7 µM (inactive); in experiment [2] it was > 100 µM (inactive); in experiment [6], 16 µM (inactive); in experiment [7], 50.5 µM (inactive); in experiment [3] it was 68.4 µM (inactive). Moreover, in experiment [9], the GI50 is 29.7 µM (inactive).
`Cc1ccccc1NC(=O)C(=O)C(c1cnc2ccc([N+](=O)[O-])cc2n1)[N+](=O)[O-]` (stereo not drawn): the GI50 in [5] is > 100 µM (inactive); in experiment [2], > 100 µM (inactive); in experiment [7] it was 44.5 µM (inactive); in [3], > 100 µM (inactive); in experiment [8] it was > 100 µM (inactive); in experiment [9], 70.3 µM (inactive). The GI50 in experiment [4] is 43 µM (inactive).
In the case of `O=C(O)c1cc(-c2ccccc2O)nc2ccccc12`, the GI50 in experiment [5] was > 100 µM (inactive); in [1], > 100 µM (inactive); in experiment [2], 26.2 µM (inactive); in experiment [6], > 100 µM (inactive); in experiment [3], > 100 µM (inactive); in experiment [8], > 100 µM (inactive). Besides, in [4], the GI50 was > 100 µM (inactive).
For the molecule `CC1=C2CCCC2=C/C(=N/Nc2ccc([N+](=O)[O-])cc2[N+](=O)[O-])CC1`, the GI50 in [5], in experiment [1], in experiment [2], in experiment [6], in experiment [7] and in experiment [3] was > 100 µM (inactive) each time. In addition, the GI50 in experiment [8] and in experiment [4] was > 100 µM (inactive) in each case.
As for `N#C/C1=C(\N)CCSSSC1`, the GI50 is 21.7 µM (inactive) in [5]; 33.1 µM (inactive) in experiment [1]; 51.6 µM (inactive) in experiment [6]; 33.3 µM (inactive) in experiment [7]; 26.9 µM (inactive) in [3]; 31.7 µM (inactive) in experiment [8]. Further, the figures for the GI50 in experiment [9] and in experiment [4] were 41.1 µM (inactive) and 32.7 µM (inactive), respectively.
Turning to `CCC1=C(CC2NCCc3ccccc32)CC2c3cc(OC)c(OC)cc3CCN2C1` (stereo not drawn), the GI50 in experiment [5] was 1.44 µM (inactive); in [1], 0.995 µM (active); in [6], 0.8 µM (active); in experiment [7], 0.618 µM (active); in experiment [3], 0.891 µM (active); in experiment [8], 2.49 µM (inactive). The GI50 in [9] is 1.45 µM (inactive).
Take `CC(=O)Nc1ccccc1[S+]([O-])c1ccccc1` (stereo not drawn): the GI50 in [5], in [1], in [2], in [6], in [7] and in experiment [3] was > 100 µM (inactive) each time. Besides, the GI50 in [8], in experiment [9] and in [4] was > 100 µM (inactive) throughout.
For the molecule `CCOC(=O)CC1NC(=O)CS1` (stereo not drawn), the GI50 in experiment [5] was > 100 µM (inactive); in experiment [1], > 100 µM (inactive); in experiment [2] it was > 100 µM (inactive); in experiment [7] it was 37.7 µM (inactive); in [3], > 100 µM (inactive); in [8], 42.5 µM (inactive). In addition, the GI50 was > 100 µM (inactive) in [9] and 25.1 µM (inactive) in experiment [4].
In the case of `C#CCN(C)C(=O)N(CC#C)N=O`, the GI50 in experiment [5], in experiment [1], in experiment [2], in experiment [7], in [3] and in experiment [8] was > 100 µM (inactive) each time. For the same molecule, the GI50 in [9] and in [4] was > 100 µM (inactive) in each case.
In the case of `CCc1cc(Cc2cc(CC)c(NC(=O)C3=CC(=O)CC(c4ccc(OC)cc4)O3)c(CC)c2Cl)c(Cl)c(CC)c1NC(=O)C1=CC(=O)CC(c2ccc(OC)cc2)O1` (stereo not drawn), the GI50 in experiment [5] was 28.2 µM (inactive); in [1] it was 18 µM (inactive); in experiment [2], 22.1 µM (inactive); in [7], 21.7 µM (inactive); in experiment [3] it was 26.7 µM (inactive); in [8] it was 18.4 µM (inactive). Moreover, the figures for the GI50 in experiment [9] and in experiment [4] were 89.7 µM (inactive) and 17.7 µM (inactive), respectively.
Turning to `O=C(c1ccccc1)C(c1ccccc1)C1(O)C(=O)Nc2ccccc21` (stereo not drawn), the GI50 in [5], in [1], in experiment [6], in [7], in experiment [3] and in experiment [8] was > 100 µM (inactive) in each case. Besides, the GI50 in [9] and in experiment [4] was > 100 µM (inactive) each time.
For the molecule `Cc1ccc(S(=O)(=O)n2cc(/C=C/C#N)c(/C=C/C#N)c2)cc1`, the GI50 in experiment [1] is > 100 µM (inactive); in [2], 20.8 µM (inactive); in experiment [6], > 100 µM (inactive); in experiment [7], 49.5 µM (inactive); in [3], 93.3 µM (inactive); in [9], > 100 µM (inactive). Further, the GI50 in [4] is 22.6 µM (inactive).
As to `Cc1ccc(C(=O)NC(C)C)cc1/N=N/N(C)C`, the GI50 was > 100 µM (inactive) in experiment [5]; > 100 µM (inactive) in experiment [1]; > 100 µM (inactive) in experiment [7]; > 100 µM (inactive) in experiment [3]; 65 µM (inactive) in experiment [8].
For `Cc1nnc2n1N=C(c1ccc(-c3ccc([N+](=O)[O-])cc3)o1)CS2`, the GI50 in [5], in experiment [1], in [7], in [3] and in [8] was > 100 µM (inactive) throughout.
As for `NC(=O)c1cccc(C2OC(COP(=O)(O)O)C(O)C2O)c1` (stereo not drawn), the GI50 in experiment [5] is 43.7 µM (inactive); in [1], > 50 µM (inactive); in experiment [6], 14.7 µM (inactive); in [7], 48 µM (inactive); in [3], > 50 µM (inactive); in experiment [8] it was 36.6 µM (inactive).
Turning to `CC(=O)O[C@H]1C(=O)[C@@]2(C)C(C(OC(=O)c3ccccc3)[C@]3(O)C[C@H](OC(=O)C(OC(=O)CCCC(=O)NCCCN(C)C)C(NC(=O)c4ccccc4)c4ccccc4)C(C)=C1C3(C)C)C1(OC(C)=O)COC1C[C@@H]2O` (stereo partly drawn), the GI50 was 2.49 µM (inactive) in experiment [5]; < 0.01 µM (active) in experiment [1]; 0.916 µM (active) in [2]; < 0.01 µM (active) in experiment [6]; < 0.01 µM (active) in experiment [7]; < 0.01 µM (active) in experiment [3]. Further, the results for the GI50 in [8], in [9] and in experiment [4] were 0.0194 µM (active), 0.0355 µM (active) and < 0.01 µM (active), respectively.
In the case of `CC(=O)O[C@H]1CCN2C(=O)C=CC(OCc3ccccc3)C12` (stereo partly drawn), the GI50 in experiment [5], in experiment [1], in [2], in experiment [6], in experiment [7] and in experiment [3] was > 100 µM (inactive) throughout. Moreover, the GI50 in experiment [8] and in [4] was > 100 µM (inactive) each time.
Turning to `CC12CC[C@@H](C(C)(C)O)C1[C@@H](O)CC1(C)C2CCC2[C@@]3(C)CC[C@H](O)C(C)(C)C3C(O)C[C@]21C` (stereo partly drawn), the GI50 in experiment [5] was 14.6 µM (inactive); in experiment [1] it was 14 µM (inactive); in [2], 24.6 µM (inactive); in experiment [3], 10 µM (inactive); in [8], 19.8 µM (inactive); in experiment [9], 18.5 µM (inactive). Besides, the GI50 in [4] is 13.6 µM (inactive).
As to `CCCCCCCCCCCCCCCC(=O)OCC1OC(n2ccc(N)nc2=O)C(O)C1O` (stereo not drawn), the GI50 in [5] was > 100 µM (inactive); in experiment [1], > 100 µM (inactive); in [2] it was 6.31 µM (inactive); in [6], > 100 µM (inactive); in [7], 2.04 µM (inactive); in experiment [3] it was > 24.8 µM (inactive).
